Calls of active or inactive are those of the source. No rule for the calls is given here.
System: UPR adaptive arm reporter cells, luciferase luminescence
Assay: adaptive unfolded protein response reporter activation – cell-based, luciferase luminescence, dose response (AID 489032)

Row | SMILES | EC50
1 | COc1cc(N(C(=O)Cc2cccs2)C(C(=O)NC2CCCCC2)c2ccc(C)cc2)ccc1-n1cnnn1 (centres undefined) | > 80 µM (inactive)
2 | Cc1ccc(C(=O)Nc2cc(S(=O)(=O)N3CCOCC3)ccc2N2CCCC2)cc1 | 63.2 µM (inactive)
3 | CSC1=NC(C)(C)C=C(/C=C/c2ccc(Cl)cc2)N1 | > 80 µM (inactive)
4 | Brc1cc2c(cc1/C=N/Nc1nc3ccccc3s1)OCO2 | 57 µM (inactive)
5 | CCN(CC)CCn1c(SCC(=O)Nc2ccc(F)cc2)nc2c(sc3ccccc32)c1=O | > 80 µM (inactive)
6 | Cc1ccc(F)cc1N=Cc1c(O)c2ccccc2oc1=O | 10.1 µM
7 | CC1CCN(Cc2c(C(=O)N/N=C/c3ccc(C(C)C)cc3)nnn2-c2nonc2N)CC1 | > 80 µM (inactive)
8 | CCc1ccc2[nH]c3nc(SCC(=O)NNC(=O)c4ccc(C(C)(C)C)cc4)nnc3c2c1 | 32.3 µM (inactive)
9 | Cc1cccc(Nc2nc3c(S(=O)(=O)c4ccccc4)nnn3c3ccccc23)c1C | 50.2 µM (inactive)
10 | CN(C)c1ccc(/C=C/[N+](=O)[O-])cc1 | > 80 µM (inactive)
11 | Cc1ccc2c(c1)C(=O)C(=O)N2Cc1ccc(Cl)cc1 | 57.2 µM (inactive)
12 | Clc1ccc(-c2ccc(/C=N/Nc3nncc(-c4ccccc4)n3)o2)cc1 | > 80 µM (inactive)
13 | COc1cc(NC(=O)c2ccco2)c(C(=O)OCC(=O)c2c[nH]c3ccccc23)cc1OC | > 80 µM (inactive)
14 | N#Cc1ccccc1NC(=O)COc1c(Br)cc(Br)c2cccnc12 | > 80 µM (inactive)
15 | CCCc1nc2ccccc2c(=O)n1/N=C/c1ccc(O)c(O)c1 | > 80 µM (inactive)
16 | COc1ccc2[nH]c3nc(SCc4nnc(-c5ccc(C)cc5)o4)nnc3c2c1 | 27.8 µM (inactive)
17 | CC(C)(C)C(=O)NC(=S)NNC(=O)c1ccc(-c2ccccc2)cc1 | 9.38 µM
18 | O=C1NC(=O)N(Cc2ccc(F)cc2)C(=O)/C1=C/c1cccs1 | > 80 µM (inactive)
19 | CC(C)c1ccc(/C=C/C(=O)Nc2nc3ccc([N+](=O)[O-])cc3s2)cc1 | > 80 µM (inactive)
20 | COc1ccc(/C=N/Nc2nnc(-c3ccccc3)c(=O)[nH]2)cc1 | 19.8 µM
21 | Cc1sc(NC(=O)c2cc(-c3ccc(Cl)cc3)nc3ccccc23)c(C(N)=O)c1C | 23.9 µM (inactive)
22 | COc1cc2nc(N3CCN(c4cc(C)ccc4C)CC3)nc(N)c2cc1OC | > 80 µM (inactive)
23 | COc1ccc(C2NCCc3c2[nH]c2ccccc32)cc1COc1ccc(F)cc1 (centres undefined) | > 80 µM (inactive)

Row | SMILES | EC50
24 | Cc1nc(Nc2nc(-c3ccccc3)cc(=O)[nH]2)nc2ccccc12 | 11.9 µM
25 | COc1cc(OC)cc(C(=O)Nc2ccc3nc4n(c(=O)c3c2)CCCCC4)c1 | 31.9 µM (inactive)
26 | CCOC(=O)c1nnc(-c2ccccc2)nc1Oc1ccc(Cl)cc1 | > 80 µM (inactive)
27 | CCOC(=O)c1[nH]c2ccc(Cl)cc2c1NC(=O)/C=C/c1ccc2c(c1)OCO2 | 74.2 µM (inactive)
28 | CCOc1ccc(C(=O)Nc2cc(-c3nc4ccccc4[nH]3)ccc2Cl)cc1[N+](=O)[O-] | 24.2 µM (inactive)
29 | COc1ccc2oc(-c3ccc(C)c(NC(=O)c4ccc(N5CCOCC5)c([N+](=O)[O-])c4)c3)nc2c1 | > 80 µM (inactive)
30 | CCOC(=O)c1c(NC(=O)c2cc(C)on2)c2cc([N+](=O)[O-])ccc2n1C | > 80 µM (inactive)
31 | Oc1ccc(CN2CCC(Cc3ccccc3)CC2)c2cccnc12 | > 80 µM (inactive)
32 | Cc1c(CCOC(=O)C23CC4(C)CC(C)(CC(C)(C4)C2)C3)sc[n+]1CC(=O)c1ccccc1 | > 80 µM (inactive)
33 | O=C1NC(=O)N(Cc2ccccc2Cl)C(=O)/C1=C/c1cccs1 | > 80 µM (inactive)
34 | N#Cc1ccc(N/N=C/c2cn(-c3ccccc3)nc2-c2ccccc2)c([N+](=O)[O-])c1 | > 80 µM (inactive)
35 | Nc1nc(Nc2cccc(C(F)(F)F)c2)nc(C(F)(F)F)n1 | 56.6 µM (inactive)
36 | C/C(Cl)=C\Cn1c(O)c(N=NC(N)=S)c2cc(Br)ccc21 | 4.06 µM
37 | O=C(NCCc1ccc(O)c(O)c1)C1COc2ccccc2O1 (centres undefined) | 66.1 µM (inactive)
38 | C/C(CCC12CC3CC(CC(C3)C1)C2)=N\NC(N)=S | 27.3 µM (inactive)
39 | O=C(C[C@@H]1C/C=C/CC[C@H](Cc2ccc(F)cc2)C(=O)OC[C@@H](Cc2ccccc2)NC1=O)N[C@H](CO)Cc1ccccc1 | 18.8 µM
40 | CCC(=O)Nc1ccc(NC(=O)CSc2nc3cc4c(cc3cc2C)CCC4)cc1 | > 80 µM (inactive)
41 | Cc1c(NC(=O)CSc2ccc(Cl)cc2)cccc1-c1nc2cc(Cl)ccc2o1 | > 80 µM (inactive)
42 | CC(=O)Oc1ccc(-c2ccc(C(=O)OCC(=O)N(C)CC(=O)Nc3ccccc3Cl)cc2)cc1 | 2.46 µM
43 | O=C(/C=C1\NC2(CCCC2)Cc2ccccc21)C(=O)N/N=C/c1ccc(O)c(O)c1 | 32 µM (inactive)
44 | O=C(CSCc1ccc(Cl)cc1)Nc1ccc(-c2nnc(-c3ccccc3)o2)cc1 | > 80 µM (inactive)
45 | COc1ccc(Nc2nc(N)c([N+](=O)[O-])c(NC3CCCCC3)n2)cc1 | > 80 µM (inactive)
46 | O=C(CSc1nc2ccc(Nc3nc(N4CCOCC4)nc(N4CCOCC4)n3)cc2s1)Nc1ccccc1F | 11.7 µM

Row | SMILES | EC50
47 | O=C(Nc1ccc([N+](=O)[O-])cc1)C(Cc1ccccc1)N1C(=O)c2cccc3cccc(c23)C1=O (centres undefined) | 27 µM (inactive)
48 | Cc1cccc(NC(=O)/C(C#N)=C/c2cn(CC(=O)NCc3ccco3)c3ccccc23)c1C | > 80 µM (inactive)
49 | O=C(CC1C[C@H](C(=O)N2CCCCC2)[C@@]2(CCc3ccccc3)c3[nH]c4ccccc4c3CCN2C1=O)NCCC1=CCCCC1 (some centres undefined) | 43 µM (inactive)
50 | C#CCn1c(=NC(=O)c2ccc(Cl)s2)sc2cccc(OC)c21 | > 80 µM (inactive)
51 | CCOC(=O)/C=c1\s/c(=C\c2ccc3cc(OC)ccc3c2)c(=O)n1CC(=O)NCC1CCCO1 (centres undefined) | 54.1 µM (inactive)
52 | CC1=CC(C)(C)N2C(=O)C(=O)c3cc(OC(=O)c4ccco4)cc1c32 | 53.1 µM (inactive)
53 | Cc1ccc2oc(C(Cl)(Cl)Cl)cc(=O)c2c1 | 28.3 µM (inactive)
54 | CCOc1ccc(NC(=S)NC(=O)/C=C/c2ccc(OC)c(OC)c2)c([N+](=O)[O-])c1 | > 80 µM (inactive)
55 | COc1ccc(OC)c(Nc2nc(NCc3ccco3)nc(N)c2[N+](=O)[O-])c1 | > 80 µM (inactive)
56 | NS(=O)(=O)c1ccc(N=Cc2c(O)n(C3CCCCC3)c(=O)n(C3CCCCC3)c2=O)cc1 | > 80 µM (inactive)
57 | CSc1ccccc1NC(=O)c1cc(-c2cccnc2)nc2ccc(Br)cc12 | > 80 µM (inactive)
58 | CCc1ccc2[nH]c3nc(SCc4nnc(-c5ccc(C)cc5)o4)nnc3c2c1 | 39.9 µM (inactive)
59 | CCCC[C@@H](C)C[C@@H](C)C(=O)N(C)[C@@H](CC(C)C)C(=O)N[C@H](C(=O)N(C)[C@H](C(=O)N1C[C@@H](O)C[C@H]1C(=O)N1C(=O)C=C[C@@H]1C)C(C)C)C(C)OC(C)=O (some centres undefined) | 13.4 µM
60 | Oc1ccc(/C=N/Nc2ncnc3c2ncn3Cc2ccccc2)cc1O | 11 µM
61 | Cc1ccc(Cc2cnc(NC(=O)/C(C#N)=C/c3ccc(-c4cccc([N+](=O)[O-])c4)o3)s2)cc1 | 18.1 µM
62 | C/C(=N/NC(=O)c1ccc(Cl)s1)c1ccc(NC(=O)COc2ccc(Cl)cc2)cc1 | > 80 µM (inactive)
63 | O=C(/C=C/c1ccco1)NC(=S)Nc1ccc(O)c(-c2nc3ccccc3s2)c1 | 10.4 µM
64 | Cc1ccc2c(c1)C(=O)C(=O)N2Cc1ccc(Br)cc1 | 59.8 µM (inactive)
65 | CCc1cccc(CC)c1NC(=O)/C(C#N)=C/c1ccccc1C(F)(F)F | > 80 µM (inactive)
66 | Cc1ccc(NC(=O)c2cc(S(=O)(=O)N(C)C)ccc2N2CCCC2)cc1F | 37.6 µM (inactive)
67 | CCOC(=O)/C(=N\Nc1ccc(C(C)=O)cc1)c1csc(Nc2ccccc2)n1 | > 80 µM (inactive)
68 | CN(C)c1ccc(/C=N/NC(=O)c2ccc(NC(=O)c3ccccc3)cc2)cc1 | > 80 µM (inactive)
69 | OCCNc1nc(Nc2ccc(Br)cc2)nc2ccccc12 | > 80 µM (inactive)

Row | SMILES | EC50
70 | CCCCCCCC(=O)Nc1ccc(C(=O)N/N=C/c2cccc([N+](=O)[O-])c2)cc1 | 18.3 µM
71 | Nc1nc(Nc2ccccc2)nc(NC2CCCCC2)c1[N+](=O)[O-] | 29.2 µM (inactive)
72 | CCn1cc(C(=O)NC(=S)Nc2sc3c(c2C(=O)OC)CCCCCC3)cn1 | > 80 µM (inactive)
73 | Cc1cc(C)c2c(c1)/C(=c1/sc3n(c1=O)CN(c1ccccc1)CN=3)C(=O)N2 | 19.2 µM
74 | CC1CCC(C(C)C)C(OC(=O)Cn2c(-c3ccc(Cl)cc3)[n+](C)c3ccccc32)C1 (centres undefined) | > 80 µM (inactive)
75 | O=C(Cn1c2ccccc2c(=O)c2cc([N+](=O)[O-])ccc21)Nc1ccccc1Cl | > 80 µM (inactive)
76 | CCC[C@@H](CN[C@@H](CNC)[C@H](C)CC)NCC1CCC(C(C)(C)C)CC1 (some centres undefined) | > 80 µM (inactive)
77 | O=C(Nc1ccc2nc3n(c(=O)c2c1)CCCCC3)c1ccccc1Cl | > 80 µM (inactive)
78 | CCN(CC)c1ccc(C(=O)OCC(=O)Nc2cc3oc4ccccc4c3cc2OC)cc1 | 25.8 µM (inactive)
79 | CCOC(=O)c1c(NC(=O)c2cc(-c3ccc(O)cc3)on2)sc(C(C)=O)c1C | > 80 µM (inactive)
80 | C=CCN1C(=O)/C(=C2/Sc3ccc(OC)cc3N2C)SC1=Nc1cccc(O)c1 | > 80 µM (inactive)
81 | Cc1ccc2nc(Nc3nc(C)cc(-c4ccccc4)n3)[nH]c(=O)c2c1 | > 80 µM (inactive)
82 | Cc1ccc(-n2c(O)c(/C=N/c3ncc(Br)cc3Br)c(=O)[nH]c2=O)cc1 | 26.8 µM (inactive)
83 | Brc1ccc2c(c1)C(c1ccc(N3CCOCC3)cc1)=NNC(c1cccs1)=N2 | 26.4 µM (inactive)
84 | CN(C)C(=O)CCc1ccc2c3c([nH]c2c1)[C@]1(CCc2ccccc2)[C@@H](C(=O)N2CCCCC2)C[C@H](CC(=O)NCCC2=CCCCC2)C(=O)N1CC3 | 35.9 µM (inactive)
85 | Cc1nn(-c2ccccc2)c(C)c1/C=N/NC(=O)CSc1nc2ccccc2c(=O)n1-c1ccc(Br)cc1 | 35.7 µM (inactive)
86 | CCc1cc2c(C)ccc(C)c2nc1SCC(=O)Nc1c[nH]c(=O)[nH]c1=O | > 80 µM (inactive)
87 | CC1=CC(C)[C@H](/C=N/n2c(=O)[nH]c3c([nH]c4ccc(C)cc43)c2=O)C(C)C1 (some centres undefined) | > 80 µM (inactive)
88 | O=c1[nH]c(O)c(/C=C2/C=CC(c3cc(Cl)ccc3Cl)=N2)c(=O)[nH]1 | 9.68 µM
89 | Cc1cc(C)c(NC(=O)CSc2nc(COc3ccccc3)nc3ccccc23)c(C)c1 | > 80 µM (inactive)

Reference: PubChem BioAssay AID489032 (Sanford-Burnham Center for Chemical Genomics, 2010)
